Reference: US20060046009A1, “Optical disk” (TDK Corporation, priority 2004, published 2006)

Experiment: Solubility of the cyanine dyes in 2,2,3,3-tetrafluoro-1-propanol
Type: physicochemical
Conditions: in 2,2,3,3-tetrafluoro-1-propanol (TFP)
Description: FIGS. 1 and 2 are schematic fragmentary sectional views showing the vicinities of grooves in the optical disks according to Example 1 (counter ion: PF6^−) and Comparative Example 2 (counter ion: I^−), respectively. […] Thus, the optical disk in Example 1 has more uniform dye

Structure (SMILES)	Solubility in TFP [mg/mL]
CN1/C(=C/C=C/C2=[N+](C)c3ccc4ccccc4c3C2(C)Cc2ccccc2)C(C)(C)c2c1ccc1ccccc21 (centres unmarked) [Example 2]	8
CN1/C(=C/C=C/C2=[N+](C)c3c(ccc4ccccc34)C2(C)C)C(C)(C)c2cc(Cl)ccc21 [Example 1]	15
